Structures can show the parent of a compound that is named as a salt.
Key:
[1] = test system: NCI-H292 lung cancer cells; assay: FDA drug screening, complete media vs cholesterol-free media without statin (TABLE 1); assay type: cell-based, human
[2] = test system: NCI-H292 lung cancer cells; assay: FDA drug screening, complete media vs cholesterol-free media with simvastatin (TABLE 2); assay type: cell-based, human; conditions: for Cholesterol-free media + simvastatin (0.04 μM) / Complete Media: NCI-H292 cells
[3] = FDA drug library screen, cholesterol-free media with simvastatin 0.04 μM
[4] = FDA drug library screen, complete media
[5] = complete media minus cholesterol-free media + simvastatin, >0 enhanced anti-cancer activity, about 0 neutral, <0 antagonist
[6] = NCI-H292 cells, cholesterol-free media without statin
[7] = complete vs cholesterol-free media, […]
[8] = Complete minus Cholesterol-free, greater than 0 enhanced anti-cancer activity, about 0 neutral, below 0 antagonist
[9] = NCI-H292 cells, FDA drug library screen, cholesterol-free media without statin
[10] = complete media vs cholesterol-free media + simvastatin (0.04 μM), >0 enhanced anti-cancer activity, about 0 neutral, <0 antagonist
[11] = NCI-H292 cells, cholesterol-free media without statin, FDA drug library screen
[12] = NCI-H292 cells, complete media, FDA drug library screen
[13] = cholesterol-free media with simvastatin 0.04 μM, FDA drug library screen (TABLE 2)
[14] = complete media, FDA drug library screen (TABLE 2)
[15] = complete vs cholesterol-free media, greater than 0 enhanced anti-cancer activity, about 0 neutral, below 0 antagonists
[16] = complete media minus cholesterol-free media + simvastatin (0.04 μM), >0 enhanced anti-cancer activity, about 0 neutral, <0 antagonist
[17] = Complete minus Cholesterol-free, >0 enhanced anti-cancer activity, about 0 neutral, <0 antagonist
[18] = FDA library drug in cholesterol-free media with simvastatin 0.04 μM
[19] = FDA library drug in complete media
[20] = NCI-H292 cells, FDA drug library screen, complete media

In the case of `CC(C)NNC(=O)c1ccncc1` [Iproniazid], the Difference ([1]; Complete minus Cholesterol-free, greater than 0 enhanced anti-cancer activity, about 0 neutral, below 0 antagonists) is reported as −0.56, the Cholesterol-free ([1]; NCI-H292 cells in cholesterol-free media without statin) is reported as 1.339 and the Complete ([1]; NCI-H292 cells in complete media) is reported as 0.7813. The “Cholesterol-free media + simvastatin (0.04 μM)” value [2, 3] was 1.211, the “Complete Media” value [2, 4] was 1.75 and the Difference [2, 5] was 0.54.
`COC(=O)c1cccc(CCN(C)CCC[C@@](C#N)(c2ccc(OC)c(OC)c2)C(C)C)c1` [Etripamil] showed a Cholesterol-free [1, 6] of 1.343, a Complete ([1]; NCI-H292 cells, complete media) of 0.9721 and a Difference [1, 7] of −0.37. The “Cholesterol-free media + simvastatin (0.04 μM)” value ([2]; cholesterol-free media with simvastatin 0.04 μM, […]) was 0.8109, the “Complete Media” value ([2]; complete media, […]) was 0.8724 and the Difference ([2]; complete media minus cholesterol-free media + simvastatin, […]) was 0.06.
With `CC(=O)[C@@]1(O)CC[C@H]2[C@@H]3C[C@H](C)C4=CC(=O)C=C[C@]4(C)[C@@]3(F)[C@@H](O)C[C@@]21C` [Fluorometholone] the Difference [1, 8] was −0.08, the Cholesterol-free [1, 9] was 1.249 and the “Cholesterol-free media + simvastatin (0.04 μM)” value ([2]; drug in cholesterol-free media with simvastatin 0.04 μM) was 0.7423. For the same compound, the “Complete Media” value ([2]; drug in complete media) was 0.5602 and the Difference [2, 10] was −0.18.
`O=S(=O)(O)c1ccc2[nH]c(-c3ccccc3)nc2c1` [Ensulizole] showed a Difference ([1]; Complete minus Cholesterol-free, […]) of 0.07, a Cholesterol-free [1, 11] of 0.8614 and a Complete [1, 12] of 0.9314. For the same compound, the “Cholesterol-free media + simvastatin (0.04 μM)” value [2, 13] was 0.9021, the “Complete Media” value [2, 14] was 0.8833 and the Difference ([2]; complete media minus cholesterol-free media + simvastatin (0.04 μM), […]) was −0.02.
For `COc1ccc2c(c1)c(CC(=O)O)c(C)n2C(=O)c1ccc(Cl)cc1` [Indomethacin (sodium hydrate)], the Cholesterol-free [1, 6] was 1.164, the Complete ([1]; NCI-H292 cells, complete media) was 0.8005 and the Difference [1, 15] was −0.36. For the same compound, the “Cholesterol-free media + simvastatin (0.04 μM)” value [2, 13] was 0.9744, the “Complete Media” value [2, 14] was 0.911 and the Difference [2, 16] was −0.06.
For Tandospirone (citrate), the Cholesterol-free [1, 6] was 1.167, the Complete ([1]; NCI-H292 cells, complete media) was 0.8565 and the Difference [1, 15] was −0.31. The Difference [2, 16] was 0.00.
Work on `CC(C)[N+](C)(CCC(C(N)=O)(c1ccccc1)c1ccccc1)C(C)C.[I-]` [Isopropamide (iodide)] yielded a Cholesterol-free [1, 6] of 1.319, a Complete ([1]; NCI-H292 cells, complete media) of 0.9185 and a Difference [1, 15] of −0.40. For the same compound, the “Cholesterol-free media + simvastatin (0.04 μM)” value ([2]; cholesterol-free media with simvastatin 0.04 μM, cell growth value in FDA drug screen) was 0.9908, the “Complete Media” value ([2]; complete media, cell growth value in FDA drug screen) was 1.047 and the Difference [2, 5] was 0.06.
With `CNc1ncc(-c2ccc3c(=O)c(C(=O)O)cn(C4CC4)c3c2C)cc1C` [Ozenoxacin] the Cholesterol-free [1, 6] was 1.08, the Complete ([1]; NCI-H292 cells, complete media) was 0.7589 and the Difference [1, 7] was −0.32. The “Cholesterol-free media + simvastatin (0.04 μM)” value [2, 3] was 0.8626, the “Complete Media” value [2, 4] was 0.762 and the Difference ([2]; complete media vs cholesterol-free media + simvastatin (0.04 μM), […]) was −0.10.
Compound `CC(C)C(=O)Nc1ccc([N+](=O)[O-])c(C(F)(F)F)c1` [Flutamide] has a Difference [1, 17] of −0.27, a Cholesterol-free [1, 6] of 1.049 and a Complete ([1]; NCI-H292 cells, complete media) of 0.7826. The “Cholesterol-free media + simvastatin (0.04 μM)” value [2, 13] was 0.8786, the “Complete Media” value [2, 14] was 0.855 and the Difference [2, 16] was −0.02.
`CCC(CC)[C@H](NC(C)=O)[C@@H]1[C@H](O)[C@@H](C(=O)O)C[C@H]1NC(=N)N.O.O.O` [Peramivir (trihydrate)] was tested, and the Cholesterol-free [1, 6] was 2.062, the Complete ([1]; NCI-H292 cells, complete media) was 1.606 and the Difference [1, 15] was −0.46. For the same compound, the “Cholesterol-free media + simvastatin (0.04 μM)” value [2, 3] was 1.025, the “Complete Media” value [2, 4] was 0.9283 and the Difference [2, 10] was −0.10.
In the case of `CCn1cc(C(=O)O)c(=O)c2cc(F)c(N3CCNC(C)C3)c(F)c21` (stereo not shown) [Lomefloxacin (hydrochloride)], the Cholesterol-free [1, 6] is reported as 1.531, the Difference [1, 15] is reported as −0.37 and the “Cholesterol-free media + simvastatin (0.04 μM)” value [2, 18] is reported as 1.657. The “Complete Media” value [2, 19] was 0.934 and the Difference [2, 10] was −0.72.
For `COc1cnc(NS(=O)(=O)c2ccc(N)cc2)nc1` [Sulfameter], the Difference [1, 8] was −0.13, the Cholesterol-free [1, 9] was 0.9159 and the Complete [1, 20] was 0.7824. The “Cholesterol-free media + simvastatin (0.04 μM)” value [2, 13] was 0.9816, the “Complete Media” value [2, 14] was 0.9471 and the Difference [2, 16] was −0.03.
`CC[C@H](Nc1ncnc2[nH]cnc12)c1nc2cccc(F)c2c(=O)n1-c1ccccc1` [Idelalisib] showed a Difference [1, 8] of −0.13, a Cholesterol-free [1, 9] of 1.096 and a Complete [1, 20] of 0.9672. The “Cholesterol-free media + simvastatin (0.04 μM)” value [2, 18] was 1.507, the “Complete Media” value [2, 19] was 1.219 and the Difference [2, 10] was −0.29.
Compound `O=C1NCCN1CCN1CCC(c2cn(-c3ccc(F)cc3)c3ccc(Cl)cc23)CC1` [Sertindole] has a Difference [1, 17] of −0.04, a Cholesterol-free [1, 11] of 0.5468 and a Complete [1, 12] of 0.5035. For the same compound, the “Cholesterol-free media + simvastatin (0.04 μM)” value [2, 3] was 0.7983, the “Complete Media” value [2, 4] was 1.128 and the Difference [2, 5] was 0.33.
Compound `Cc1oc(=O)oc1CN1CCN(c2cc3c(cc2F)c(=O)c(C(=O)O)c2n3C(C)S2)CC1` (stereo not shown) [Prulifloxacin] has a Cholesterol-free [1, 11] of 1.111, a Complete [1, 12] of 1.213 and a Difference ([1]; complete vs cholesterol-free media, >0 enhanced anti-cancer activity, about 0 neutral, <0 antagonist) of 0.10. For the same compound, the “Cholesterol-free media + simvastatin (0.04 μM)” value [2, 3] was 0.966 and the Difference [2, 5] was 0.21.

Reference: patent publication US20250144067A1, “PERSONALIZED STARVATION THERAPY FOR CANCER” (Faeth Therapeutics, Inc., priority 2021, published 2025)
